EPA's ToxRefDB 2

Experiments:
mouse [1] = details: Carcinogenicity, cd1, Oral, Feed, dose end: 105 week, group: systemic
rat [2] = details: Multigenerational reproductive toxicity study, other, Oral, Feed, dose end: 2 generation
rat [3] = details: Combined chronic toxicity/carcinogenicity, sprague dawley, Oral, Feed, dose end: 104 week
rat [4] = details: Peri- and post-natal toxicity study (Segment III), sprague dawley, Oral, Gavage/Intubation, dose end: 42 PND
dog [5] = details: Chronic toxicity, beagle, Oral, Feed, dose end: 12 month, group: systemic
dog [6] = details: Chronic toxicity; beagle; Oral; Feed; dose end: 12 month; group: systemic; systemic / pathology microscopic / adrenal gland / fatty change + systemic / pathology microscopic / adrenal gland / hyperplasia + systemic…
rat [7] = details: Subchronic oral toxicity in rodents, fischer, Feed, dose end: 90 day, group: systemic, systemic / pathology microscopic / stomach / hyperplasia
rat [8] = details: Combined chronic toxicity/carcinogenicity, fischer, Oral, Feed, dose end: 104 week, group: systemic
dog [9] = details: Subchronic oral toxicity in nonrodent, beagle, Capsule, dose end: 13 week, group: systemic
dog [10] = details: Chronic toxicity; beagle; Oral; Capsule; dose end: 52 week; group: systemic; systemic / pathology microscopic / kidney / dilatation + systemic / pathology microscopic / kidney / fibrosis + systemic / urinalysis / …
rabbit [11] = details: Prenatal developmental toxicity study; new zealand white; Oral; Gavage/Intubation; dose end: 19 GD; group: maternal; reproductive / reproductive performance / aborted / aborted + systemic / in life observation / body weight / body weight gain + systemic / …
rat [12] = details: Multigenerational reproductive toxicity study, other, Oral, Feed, dose end: 2 generation; remark: listed apart in the source
mouse [13] = details: Carcinogenicity; b6c3f1; Oral; Feed; dose end: 104 week; group: systemic; systemic / in life observation / body weight / body weight gain + systemic / in life observation / food consumption / food consumption + …
rat [14] = details: Subchronic oral toxicity in rodents, other, Feed, dose end: 13 week, group: systemic
rat [15] = details: Subchronic oral toxicity in rodents, wistar, Feed, dose end: 90 day, group: systemic, systemic / pathology microscopic / stomach / hyperplasia + systemic / pathology microscopic / stomach / infiltration cellular + systemic / …
mouse [16] = details: Carcinogenicity, other, Oral, Feed, dose end: 24 month, group: systemic
rabbit [17] = details: Prenatal developmental toxicity study, himalayan, Oral, Gavage/Intubation, dose end: 28 GD
dog [18] = details: Subchronic oral toxicity in nonrodent, beagle, Feed, dose end: 64 day, group: systemic, systemic / clinical chemistry / cytochrome p450, nos / cytochrome p450, nos + systemic / clinical chemistry / o-demethylase / o-demethylase…
rat [19] = details: Multigenerational reproductive toxicity study, wistar, Oral, Feed, dose end: 2 generation
mouse [20] = details: Subchronic oral toxicity in rodents, b6c3f1, Feed, dose end: 90 day, group: systemic, systemic / in life observation / body weight / body weight + systemic / in life observation / body weight / body weight gain + systemic / in…
rat [21] = details: Combined chronic toxicity/carcinogenicity, fischer, Oral, Feed, dose end: 24 month, group: systemic
[22] = systemic / in life observation / body weight / body weight gain
[23] = group: cholinesterase, cholinesterase / cholinesterase / cholinesterase / cholinesterase (che)
[24] = group: offspring, systemic / in life observation / body weight / offspring (pup) weight
[25] = group: offspring, systemic / in life observation / body weight / offspring (pup) weight + developmental / offspring survival late / lactation index / …
[26] = group: parental, systemic / in life observation / body weight / body weight gain
[27] = group: reproductive, reproductive / offspring survival early / litter size / litter size
[28] = group: cholinesterase, cholinesterase / cholinesterase / cholinesterase / erythrocyte cholinesterase (che) + cholinesterase / cholinesterase / cholinesterase / …
[29] = group: cholinesterase, cholinesterase / cholinesterase / cholinesterase / plasma cholinesterase (che)
[30] = group: systemic, systemic / clinical chemistry / urea nitrogen / urea nitrogen
[31] = group: systemic, systemic / clinical chemistry / urea nitrogen / urea nitrogen + systemic / organ weight / brain / relative to body weight + systemic / organ…
[32] = group: maternal, reproductive / offspring survival early / dead fetuses / dead fetuses
[33] = group: offspring, systemic / hematology / leukocyte (wbc) count differential / leukocyte (wbc) + systemic / in life observation / body weight / offspring (pup…
[34] = systemic / organ weight / spleen / absolute + systemic / organ weight / spleen / relative to body weight + systemic / pathology microscopic…
[35] = systemic / pathology gross / liver / accentuated lobular pattern + systemic / pathology microscopic / eye / lesion(s) (nos) + systemic / …
[36] = systemic / clinical chemistry / potassium / potassium + systemic / in life observation / clinical signs / abnormal feces + systemic / …
[37] = group: parental, systemic / pathology gross / stomach / thickened + systemic / pathology microscopic / stomach / acanthosis + systemic / pathology …
[38] = systemic / pathology microscopic / kidney / hypertrophy
[39] = systemic / pathology microscopic / kidney / hypertrophy + systemic / in life observation / body weight / body weight + systemic / in life …
[40] = systemic / hematology / leukocyte (wbc) count differential / leukocyte (wbc) + systemic / hematology / mean corpuscular hemoglobin (mch) / …
[41] = systemic / hematology / mean corpuscular hemoglobin concentration (mchc) / mean corpuscular hemoglobin concentration (mchc)
[42] = group: developmental, developmental / developmental malformation / bone / absent + developmental / developmental malformation / bone / enlarged fontanel + …
[43] = group: maternal, reproductive / reproductive performance / aborted / aborted + systemic / in life observation / body weight / body weight + systemic / in …
[44] = group: parental, systemic / pathology microscopic / stomach / vacuolization
[45] = group: reproductive, reproductive / offspring survival early / birth index / live birth index
[46] = systemic / organ weight / kidney / relative to body weight

SMILES: COP(=O)(OC)SCn1c(=O)oc2cc(Cl)cnc21 [Azamethiphos]
- LEL (mouse [1]; [22]): 6.2 mg/kg/day
- NEL (mouse [1]; [22]): < 6.2 mg/kg/day
- LOAEL (mouse [1]; systemic / pathology microscopic / intestine small / hyperplasia): 60.2 mg/kg/day
- NOAEL (mouse [1]; systemic / pathology microscopic / intestine small / hyperplasia + systemic / hematology / hematocrit (hct) / hematocrit (hct) + systemic / …): 6.2 mg/kg/day
- LEL (rat [2]; [23]): 10 mg/kg/day
- LOAEL (rat [2]; [23]): 10 mg/kg/day
- NEL (rat [2]; [23]): 2 mg/kg/day
- NOAEL (rat [2]; [23]): 2 mg/kg/day
- LOAEL (rat [2]; [24]): 50 mg/kg/day
- LEL (rat [2]; [25]): 50 mg/kg/day
- NEL (rat [2]; [25]): 10 mg/kg/day
- NOAEL (rat [2]; [25]): 10 mg/kg/day
- LEL (rat [2]; [26]): 10 mg/kg/day
- LOAEL (rat [2]; [26]): 10 mg/kg/day
- NEL (rat [2]; [26]): 2 mg/kg/day
- NOAEL (rat [2]; [26]): 2 mg/kg/day
- LEL (rat [2]; [27]): 50 mg/kg/day
- LOAEL (rat [2]; [27]): 50 mg/kg/day
- NEL (rat [2]; [27]): 10 mg/kg/day
- NOAEL (rat [2]; [27]): 10 mg/kg/day
- LOAEL (rat [3]; [28]): 8.1 mg/kg/day
- NOAEL (rat [3]; [28]): 0.8 mg/kg/day
- LEL (rat [3]; [29]): 1.1 mg/kg/day
- NEL (rat [3]; [29]): < 1.1 mg/kg/day
- LEL (rat [3]; [30]): 0.8 mg/kg/day
- NEL (rat [3]; [30]): < 0.8 mg/kg/day
- LOAEL (rat [3]; [31]): > 62.6 mg/kg/day
- NOAEL (rat [3]; [31]): ≥ 62.6 mg/kg/day

SMILES: CC(C)(C)C(O)(CCc1ccc(Cl)cc1)Cn1cncn1 (stereo not given) [Tebuconazole]
- LEL (rat [4]; [32]): 60 mg/kg/day
- LOAEL (rat [4]; [32]): > 60 mg/kg/day
- NEL (rat [4]; [32]): 20 mg/kg/day
- NOAEL (rat [4]; [32]): ≥ 60 mg/kg/day
- LEL (rat [4]; [33]): 60 mg/kg/day
- LOAEL (rat [4]; [33]): > 60 mg/kg/day
- NEL (rat [4]; [33]): 20 mg/kg/day
- NOAEL (rat [4]; [33]): ≥ 60 mg/kg/day
- LEL (rat [4]; [26]): 60 mg/kg/day
- LOAEL (rat [4]; [26]): > 60 mg/kg/day
- NEL (rat [4]; [26]): 20 mg/kg/day
- NOAEL (rat [4]; [26]): ≥ 60 mg/kg/day
- LEL (dog [5]; [34]): 15.5 mg/kg/day
- NEL (dog [5]; [34]): < 15.5 mg/kg/day
- LOAEL (dog [5]; [35]): 77.3 mg/kg/day
- NOAEL (dog [5]; [35]): 15.5 mg/kg/day
- LEL (dog [6]): 4.39 mg/kg/day
- LOAEL (dog [6]): 4.39 mg/kg/day
- NEL (dog [6]): 2.96 mg/kg/day
- NOAEL (dog [6]): 2.96 mg/kg/day

SMILES: CCC([O-])=C1C(=O)CC(C(=O)[O-])CC1=O.[Ca+2] (stereo not given) [Prohexadione-calcium]
- LEL (rat [7]): 734 mg/kg/day
- LOAEL (rat [7]): 734 mg/kg/day
- NEL (rat [7]): 73.1 mg/kg/day
- NOAEL (rat [7]): 73.1 mg/kg/day
- LOAEL (rat [8]; systemic / hematology / leukocyte (wbc) count differential / leukocyte (wbc)): 469 mg/kg/day
- NOAEL (rat [8]; systemic / hematology / leukocyte (wbc) count differential / leukocyte (wbc) + systemic / in life observation / body weight / body weight + …): 93.9 mg/kg/day
- LEL (rat [8]; systemic / pathology microscopic / thyroid gland / dilatation): 114 mg/kg/day
- NEL (rat [8]; systemic / pathology microscopic / thyroid gland / dilatation + systemic / in life observation / body weight / body weight + systemic / in …): 22.3 mg/kg/day
- NEL (dog [9]; [36]): 80 mg/kg/day
- NOAEL (dog [9]; [36]): 80 mg/kg/day
- LOAEL (dog [9]; systemic / clinical chemistry / potassium / potassium + systemic / pathology microscopic / kidney / dilatation): 400 mg/kg/day
- LEL (dog [9]; systemic / clinical chemistry / potassium / potassium + systemic / pathology microscopic / kidney / dilatation + systemic / in life …): 400 mg/kg/day
- LEL (dog [10]): 200 mg/kg/day
- LOAEL (dog [10]): 200 mg/kg/day
- NEL (dog [10]): 20 mg/kg/day
- NOAEL (dog [10]): 20 mg/kg/day
- LEL (rabbit [11]): 200 mg/kg/day
- LOAEL (rabbit [11]): 200 mg/kg/day
- NEL (rabbit [11]): 40 mg/kg/day
- NOAEL (rabbit [11]): 40 mg/kg/day
- LEL (rat [12]; [24]): 385 mg/kg/day
- LOAEL (rat [12]; [24]): 3850 mg/kg/day
- NEL (rat [12]; [24]): 35.5 mg/kg/day
- NOAEL (rat [12]; [24]): 385 mg/kg/day
- LOAEL (rat [12]; group: parental, systemic / in life observation / mortality / mortality): 385 mg/kg/day
- NOAEL (rat [12]; group: parental, systemic / in life observation / mortality / mortality + systemic / in life observation / body weight / body weight + systemic / pathology …): 35.5 mg/kg/day
- LEL (rat [12]; [37]): 35.5 mg/kg/day
- NEL (rat [12]; [37]): < 35.5 mg/kg/day
- LEL (mouse [13]): 2850 mg/kg/day
- LOAEL (mouse [13]): 2850 mg/kg/day
- NEL (mouse [13]): 279 mg/kg/day
- NOAEL (mouse [13]): 279 mg/kg/day

SMILES: CCOP(=O)([O-])C(N)=O.[NH4+] [Fosamine ammonium]
- LEL (rat [14]; [38]): 50 mg/kg/day
- LOAEL (rat [14]; [38]): 50 mg/kg/day
- NEL (rat [14]; [39]): 10 mg/kg/day
- NOAEL (rat [14]; [39]): 10 mg/kg/day

SMILES: CCCOc1nn(C(=O)[N-]S(=O)(=O)c2ccccc2C(=O)OC)c(=O)n1C.[Na+] [Propoxycarbazone-sodium]
- LEL (rat [15]): 1510 mg/kg/day
- LOAEL (rat [15]): 1510 mg/kg/day
- NEL (rat [15]): 286 mg/kg/day
- NOAEL (rat [15]): 286 mg/kg/day
- LOAEL (mouse [16]; [40]): > 1880 mg/kg/day
- NOAEL (mouse [16]; [40]): ≥ 1880 mg/kg/day
- LEL (mouse [16]; [41]): 74.6 mg/kg/day
- NEL (mouse [16]; [41]): < 74.6 mg/kg/day
- LEL (rabbit [17]; [42]): 1000 mg/kg/day
- LOAEL (rabbit [17]; [42]): > 1000 mg/kg/day
- NEL (rabbit [17]; [42]): 500 mg/kg/day
- NOAEL (rabbit [17]; [42]): ≥ 1000 mg/kg/day
- LEL (rabbit [17]; [43]): 500 mg/kg/day
- LOAEL (rabbit [17]; [43]): 500 mg/kg/day
- NEL (rabbit [17]; [43]): 100 mg/kg/day
- NOAEL (rabbit [17]; [43]): 100 mg/kg/day
- LEL (dog [18]): 1180 mg/kg/day
- LOAEL (dog [18]): > 1180 mg/kg/day
- NEL (dog [18]): 286 mg/kg/day
- NOAEL (dog [18]): ≥ 1180 mg/kg/day
- LEL (rat [19]; [44]): 323 mg/kg/day
- LOAEL (rat [19]; [44]): 323 mg/kg/day
- NEL (rat [19]; [44]): 79.6 mg/kg/day
- NOAEL (rat [19]; [44]): 79.6 mg/kg/day
- LEL (rat [19]; [45]): 1310 mg/kg/day
- LOAEL (rat [19]; [45]): 1310 mg/kg/day
- NEL (rat [19]; [45]): 323 mg/kg/day
- NOAEL (rat [19]; [45]): 323 mg/kg/day
- LEL (mouse [20]): 860 mg/kg/day
- LOAEL (mouse [20]): 860 mg/kg/day
- NEL (mouse [20]): 205 mg/kg/day
- NOAEL (mouse [20]): 205 mg/kg/day
- LOAEL (rat [21]; systemic / in life observation / body weight / body weight gain + systemic / urinalysis / ph / ph): 459 mg/kg/day
- NOAEL (rat [21]; systemic / in life observation / body weight / body weight gain + systemic / urinalysis / ph / ph + systemic / pathology gross / full gross …): 43 mg/kg/day
- LEL (rat [21]; [46]): 43 mg/kg/day
- NEL (rat [21]; [46]): < 43 mg/kg/day
